In US6667161B1, “Chromogenic substrates of sialidase of bacterial, viral, protozoa, and vertebrate origin and methods of making and using the same” (Ibbex, Inc., priority 1997, dated 2003):

What was measured:
[1] = biological target: purified recombinant bacterial sialidase from Salmonella T. (Salmonella typhimurium, UniProt P29768); assay: Biochemical evaluation of chromogenic substrate with bacterial sialidase; settings: substrate ca. 0.7 mM, 30 minutes
[2] = biological target: viral sialidase from whole influenza virus A1PR/8/34 (Influenza A virus, UniProt P03468); assay: Biochemical evaluation of chromogenic substrate with viral sialidase; settings: substrate ca. 0.7 mM, 30 minutes
viral sialidase from whole influenza virus A1PR/8/34, sequence (P03468 whole entry, looked up): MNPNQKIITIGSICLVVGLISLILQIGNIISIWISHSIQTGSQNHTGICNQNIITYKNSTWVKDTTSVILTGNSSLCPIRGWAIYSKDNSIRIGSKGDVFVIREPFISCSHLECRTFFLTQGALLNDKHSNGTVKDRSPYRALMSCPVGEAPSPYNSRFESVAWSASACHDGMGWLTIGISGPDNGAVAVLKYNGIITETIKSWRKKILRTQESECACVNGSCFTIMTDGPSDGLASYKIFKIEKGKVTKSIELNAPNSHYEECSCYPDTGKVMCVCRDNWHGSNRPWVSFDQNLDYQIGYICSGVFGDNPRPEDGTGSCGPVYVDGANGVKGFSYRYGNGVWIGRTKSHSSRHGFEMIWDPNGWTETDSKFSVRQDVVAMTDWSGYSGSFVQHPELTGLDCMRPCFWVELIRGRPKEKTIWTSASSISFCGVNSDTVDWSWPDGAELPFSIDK
Description: Biochemical evaluation for the chromogenic product of viral sialidase substrate compounds. Sialidase can be obtained from, for example, purified recombinant bacterial sialidase from Salmonella T., whole influenza virus, or culture medium containing secreted human sialidase from the 2CFSME cell line. The sialidase preparation is added to a buffer of sodium acetate (0.05 to 0.5 M; pH 5.0-6.0), and the substrate compound is provided at about 0.2-1.0 mM concentration. It should be noted that numerous other examples of buffer solution may be used, including organic acids such as citrate buffers, for example, as well as inorganic buffers, including potassium, sodium, calcium, and other such salts thereof. […] The color change is readily visible. The color change can be quantitated spectrophotometrically by measuring the light absorption of the reaction mixture. […]
E. Biochemical Evaluation of a Chromogenic Substrate Product with Bacterial Sialidase and with Viral Sialidase. […] The reaction progress was quantitated by measuring the light absorption of the reaction mixture. The light absorption was measured with a spectrophotometer at 517 nm with a 1 cm path cell. In the experiment conducted with bacterial sialidase, the absorbance was measured as 2.448. In the experiment conducted with viral sialidase, the absorbance was measured as 1.168. […]

[3] = pH 6.0, 37° C., after addition of sodium hydroxide (pH>11.0)

purified recombinant bacterial sialidase from Salmonella T., sequence (P29768 whole entry): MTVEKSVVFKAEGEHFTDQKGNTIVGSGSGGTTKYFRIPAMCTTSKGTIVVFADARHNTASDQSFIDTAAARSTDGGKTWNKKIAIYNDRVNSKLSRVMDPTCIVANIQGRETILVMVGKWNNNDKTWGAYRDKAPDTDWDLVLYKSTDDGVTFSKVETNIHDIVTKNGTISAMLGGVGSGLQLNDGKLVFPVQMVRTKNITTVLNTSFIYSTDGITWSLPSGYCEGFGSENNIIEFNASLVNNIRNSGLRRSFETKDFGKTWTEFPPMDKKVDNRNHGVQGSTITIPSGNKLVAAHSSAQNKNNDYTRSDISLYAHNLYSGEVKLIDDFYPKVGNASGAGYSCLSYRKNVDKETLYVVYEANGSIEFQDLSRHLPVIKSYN

COC(=O)C1(Oc2cc(C)c(C3(c4cc(C(C)C)c(O)cc4C)OC(=O)c4ccccc43)cc2C(C)C)CC(OC)C(NC(C)=O)C([C@H](N)[C@H](O)CO)O1 (stereo partly shown) [Compound 9c]
absorbance (light absorption of the reaction mixture) ([1]; 517 nm, 1 cm path cell, potassium acetate 0.5 M pH 6.0, 37° C., then sodium hydroxide 1.0 M): 2.448 | visible color change [1, 3]: color change to blue was readily visible | absorbance (light absorption of the reaction mixture) ([2]; 517 nm, 1 cm path cell, potassium acetate 0.5 M pH 6.0, 37° C., then sodium hydroxide 1.0 M, reaction not allowed to proceed to completion): 1.168 | visible color change [2, 3]: color change to blue was readily visible
